# From patent US12258425B2, “Peptide compositions and methods of use” (priority 2015, dated 2025)
# Where a SMILES comes first, the peptide text is derived from it.
# Legend:
# [1] = Rabbit intravitreal ocular pharmacokinetic study (vitreous humor and retina); conditions: IVT in Poloxamer or Polysorbate formulations, 10 day course
# Procedure: (§1) This study was conducted to determine the concentrations of Compound 1 in vitreous humor (VH) and retina tissue following intravitreal injections of male Dutch Belted rabbits. Concentrations were determined in tissues at 24, 72, 168, and 240 hours post-dose of a 50 μL bilateral intravitreal (IVT) dose.
# (§2) Test system included the following: • Species/Strain/Gender: Male Dutch Belted Rabbits • Supplier: Covance Research Products, Inc. • Age Range: 4 to 5 months • Weight at Receipt (Range of • Weights): 1.51-1.85 kg • Administration Route: Intravitreal (IVT) injection • Duration of Treatment: Single Dose per eye • Formulation Concentrations: 2.0, 1.0, and 0.5 mg/mL Compound 1 triacetate • Dose Volume: 50 μL per eye
# (§3) An intravitreal (IVT) injection ocular dose of 50 μL was administered to the globe of each of Dutch Belted rabbit eye.
# (§4) At the respective time points the rabbits were euthanized by intravenous barbiturate overdose, and eyes were enucleated and snap frozen. Vitreous humor and retina were collected from all animals and analyzed for Compound 1 by LC-MS/MS
# [2] = pH-solubility titration (visual: precipitate, turbidity, viscosity, gel); assay type: physicochemical
# Procedure: Compound 1 obtained as a trihydrochloride salt, as described in Example 1, and was screened for aqueous solubility at different pHs, by carrying out pH titrations according to the following protocol. In some cases Met-12 was run through an identical experimental procedure to determine its solubility pH profile under the same conditions.
# Compound 1 (10 mg) was dissolved in water (270-900 ? L) in a 2 mL clear plastic centrifuge tube with vortexing to give a pH ˜2.4 solution. […] This solution was then diluted with the appropriate amount of cosolvent or other excipient (sugar, surfactant etc.) to produce a clear acidic solution of 10 mg of Compound 1 in […] of the test solution at room temperature ([…]). Small aliquots of a basic solution (usually sodium hydroxide 1.0 M or 0.1 M, but sometimes other bases when investigating buffers) were added using a microliter syringe. Between additions the solution was mixed by vortexing, and the solution was inspected visually for precipitates of various types, turbidity, as a likely sign of microprecipitates, and viscosity to detect gel formation. pH measurements were taken at all these observation points. Some experiments titrated from the endogenous low pH to pH 10, but later titrations were not carried much above pH 7, or sometimes even lower.
# [3] = rabbit, in vivo
# Procedure: as §1, §2, §3, §4
# in vivo [4] = conditions: male, Dutch Belted, rabbit
# Procedure: as §1, §2, §3, §4
# [5] = rat, in vivo
# Procedure: (§5) Concentrations were determined in tissues at 24 (Group 1), and 72 hours (Groups 1 and 2) post-dose of a 5 μL bilateral intravitreal (IVT) dose.
# (§6) Test system included the following: • Species/Strain/Gender: Norway Brown Rats • Supplier: Charles River, Inc. • Age Range: 1 to 2 months • Weight at Receipt (Range of • Weights): 165.9-181.2 g • Administration Route: Intravitreal (IVT) injection • Duration of Treatment: Single dose per eye • Formulation Concentrations: 0.06 mg/mL ONL-1204 triacetate • Dose Volume: 5 μL per eye Harvesting of Ocular Tissues
# (§7) Rats were euthanized by intravenous barbiturate overdose, and eyes were enucleated and snap frozen. Vitreous humor (VH) and retina were collected from all animals and analyzed for Compound 1 by LC-MS/MS.
# (§8) For each VH unknown or control blank: Weigh VH into a homogenization tube. Add 4 times the VH weight (mg) of ACN:water:1 M hydrochloric acid (70:20:10, v/v/v) (μL) to the homogenization tube. Add zirconium oxide beads, 2.8 and 1.4 mm size. Homogenize all samples on Precellys®: 5500 rpm, 3×30 second cycles, and 20 seconds between cycles, at a temperature between −10 to 0° C.
# (§9) For each retina unknown or control blank: • Weigh retina tissue into a homogenization tube. • Add 4 times the tissue weight (mg) of ACN:water:1 M hydrochloric acid (70:20:10, v/v/v) (μL) to the homogenization tube. • Add zirconium oxide beads, 1.4 mm size. • Homogenize all samples on Precellys®: 5500 rpm, 3×30 second cycles, and 20 seconds between cycles, at a temperature between −10 to 0° C. Preparation of Standards, Samples, and Blanks Preparation of Calibration Stock and Working Standards
# (§10) One hundred (100) μL of each vitreous humor sample with ACN: formic acid (1000:1, v/v) was then aliquoted. One hundred (100) μL of DMSO:water:formic acid (50:40:10) was added to each vitreous humor sample. The samples were vortex mixed then centrifuged for 10 minutes at 14,000 rpm (4° C.). To 50.0 μL supernatant, 100 μL of working internal standard (50,000 ng/mL APi1887 in water) (water for the blank without internal standard), and 150 μL of water were added. The samples were then vortex mixed and transferred to an autosampler plate for analysis.
# (§11) In a polypropylene tube, 50 μL of Brown Norway rat unknown homogenate, bovine control blank or calibration standard Bovine homogenate was added. Fifty (50) μL of DMSO:water:formic acid (50:40:10) was added to each sample. The samples were then vortex mixed and centrifuged for 10 minutes at 14,000 rpm (4° C.). Eighty (80) μL of each sample supernatant was then aliquoted to a 96-well autosampler plate. Forty (40) μL of working internal standard (5,000 ng/mL APi1887 in water) (water for the blank without internal standard), and 120 μL of water were added. The samples were then mixed with a multichannel pipette and analyzed.
# in vivo [6] = conditions: Brown Norway, rat, 0.3 ug/eye, Mean concentration in rat retina
# Procedure: as §5, §6, §7, §8, §9, §10, §11
# [7] = 0.025 mg/eye, Calculated Concentration in vitreous humor
# [8] = 0.05 mg/eye, Calculated Concentration in retina
# [9] = 0.05 mg/eye, Calculated Concentration in vitreous humor
# [10] = 0.05 mg/eye, Mean concentration in retina
# [11] = 0.1 mg/eye, Calculated Concentration in retina
# [12] = 0.1 mg/eye, Calculated Concentration in vitreous humor
# [13] = 0.1 mg/eye, Mean concentration in retina
smiles,measurement,setting,value
"CC[C@H](C)[C@H](NC(=O)[C@H](Cc1ccc(O)cc1)NC(=O)[C@H](CC(N)=O)NC(=O)[C@@H](NC(=O)[C@H](C)NC(=O)CNC(=O)[C@H](CC(C)C)NC(=O)[C@H](Cc1ccc(O)cc1)NC(=O)[C@@H](NC(=O)[C@H](Cc1cnc[nH]1)NC(=O)[C@@H](N)Cc1cnc[nH]1)[C@@H](C)CC)C(C)C)C(=O)N[C@@H](Cc1ccc(O)cc1)C(N)=O [Compound 1, His-His-Ile-Tyr-Leu-Gly-Ala-Val-Asn-Tyr-Ile-Tyr-NHz] (H-HHIYLGAVNYIY-NH2)",Irritation / tolerability,[1],no signs of irritation or tolerability issues
same,Aqueous solubility (in words),[2],poor aqueous solubility above pH˜3
same,Behaviour on standing overnight,[2],"the solution gelled, and the pH dropped by about 0.2 units"
same,solubility,[2]; pH 2.4,≥ 40 mg/mL
same,Terminal t1/2 in Retina,"[3]; male, Dutch Belted",199 h
same,Mean concentration in retina,"[3]; male, Dutch Belted, 0.025 mg/eye, 168 h",1440 ng/g
same,VH AUC0-last of Group 1 (2 mg/mL) relative to Groups 2 and 3 (0.5 mg/mL),[3],approximate four times greater AUC
same,level at 24 h,in vivo [4]; [7],22000 ng/mL
same,level at 168 h,in vivo [4]; [7],22300 ng/mL
same,level at 240 h,in vivo [4]; [7],18000 ng/mL
same,tissue level at time at 168 h,"in vivo [4]; 0.025 mg/eye, Mean concentration in retina",912 ng/g
same,tissue level at time at 72 h,in vivo [4]; [8],172 ng/g
same,tissue level at time at 168 h,in vivo [4]; [8],204 ng/g
same,tissue level at time at 240 h,in vivo [4]; [8],109 ng/g
same,level at 24 h,in vivo [4]; [9],44000 ng/mL
same,level at 72 h,in vivo [4]; [9],39600 ng/mL
same,level at 168 h,in vivo [4]; [9],25900 ng/mL
same,tissue level at time at 24 h,in vivo [4]; [10],206 ng/g
same,tissue level at time at 72 h,in vivo [4]; [10],95 ng/g
same,tissue level at time at 168 h,in vivo [4]; [10],51 ng/g
same,tissue level at time at 240 h,in vivo [4]; [10],27.3 ng/g
same,level at 240 h,in vivo [4]; [11],112 ng/mL
same,tissue level at time at 240 h,in vivo [4]; [11],559 ng/g
same,level at 24 h,in vivo [4]; [12],75900 ng/mL
same,level at 72 h,in vivo [4]; [12],125000 ng/mL
same,level at 168 h,in vivo [4]; [12],84800 ng/mL
same,level at 240 h,in vivo [4]; [12],79400 ng/mL
same,tissue level at time at 24 h,in vivo [4]; [13],596 ng/g
same,tissue level at time at 72 h,in vivo [4]; [13],1630 ng/g
same,tissue level at time at 168 h,in vivo [4]; [13],354 ng/g
same,tissue level at time at 240 h,in vivo [4]; [13],490 ng/g
same,half-life,in vivo [4]; Terminal t1/2 in Retina,168 h
same,half-life,in vivo [4]; t1/2 in VH,> 900 h
same,Clearance from VH in the first 24 hours,[5],about half the drug cleared the VH
same,Terminal half-life in VH,[5],on the order of several days
same,tissue level at time at 24 h,in vivo [6],1210 ng/g
same,tissue level at time at 72 h,in vivo [6],570 ng/g
